Data as given in US20240366612A1, “COMPOUNDS AND METHODS FOR MODULATING NUCLEIC ACID SPLICING” (REMIX THERAPEUTICS INC., priority 2021, published 2024).

Legend:
MYB mRNA = assay: Splicing RT-qPCR assay, MYB canonical (CJ) and alternative (AJ) junction mRNA; type: cell-based; conditions: Homo sapiens, A673 or K562 cells, 24 hours treatment; for IC50: decrease in CJ mRNA; for AC50: increase in AJ mRNA
Experimental: Compounds described herein were used to modulate RNA transcript abundance in cells. The expression of a target mRNA was measured by detecting the formation of an exon-exon junction in the canonical transcript (CJ). A compound mediated exon-inclusion event was detected by observing an increase in formation of a new junction with an alternative exon (AJ). Real-time qPCR assays were used to detect these splicing switches and interrogate the potency of various compounds towards different target genes. A high-throughput real time quantitative PCR (RT-qPCR) assay was developed to measure these two isoforms of the mRNA (CJ and AJ) for exemplary genes, such as HTT, SMN2, and MYB, together with a control housekeeping gene, GAPDH or GUSB or PPIA, used for normalization. Briefly, the A673 or K562 cell line was treated with various compounds described herein (e.g., compounds of Formula (I)). After treatment, the levels of the HTT, MYB, or SMN2 mRNA targets were determined from each sample of cell lysate by cDNA synthesis followed by qPCR.
• Cells-to-CT 1-step kit: ThermoFisher A25602, Cells-to-CT lysis reagent: ThermoFisher 4391851C, TaqMan™ Fast Virus 1-Step Master Mix: ThermoFisher 4444436 • GAPDH: VIC-PL, ThermoFisher 4326317E (Assay: Hs99999905_ml)—used for K562/suspension cell lines • GUSB: VIC-PL, ThermoFisher 4326320E (Assay: Hs99999908_ml)—used for K562/suspension cell lines • PPIA: VIC-PL, ThermoFisher 4326316E (Assay: Hs99999904_ml)—used for A673/adherent cell lines
The A673 cell line was cultured in DMEM with 10% FBS. Cells were diluted with full growth media and plated in a 96-well plate (15,000 cells in 100 ul media per well). The plate was incubated at 37° C. with 5% CO2 for 24 hours to allow cells to adhere. An 11-point 3-fold serial dilution of the compounds was made in DMSO then diluted in media in an intermediate plate. Compounds were transferred from the intermediate plate to the cell plate with the top dose at a final concentration of 10 uM in the well. Final DMSO concentration was kept at or below 0.25%. The cell plate was returned to the incubator at 37° C. with 5% CO2 for an additional 24 hours.
The K562 cell line was cultured in IMDM with 10% FBS. For K562, cells were diluted with full growth media and plated in either a 96-well plate (50,000 cells in 50 uL media per well) or a 384-well plate (8,000-40,000 cells in 45 uL media per well). An 11-point 3-fold serial dilution of the compounds were made in DMSO then diluted in media in an intermediate plate. Compound was transferred from the intermediate plate to the cell plate with the top dose at a final concentration of 10 uM in the well. Final DMSO concentration was kept at or below 0.25%. Final volume was 100 uL for 96-well plate and 50 uL for 384-well plate. The cell plate was then placed in an incubator at 37° C. with 5% CO2 for 24 hours.
The cells were then gently washed with 50 uL-100 uL cold PBS before proceeding to addition of lysis buffer. 30 uL-50 μL of room temperature lysis buffer with DNAse I (and optionally RNAsin) was added to each well. Cells were shaken/mixed thoroughly at room temperature for 5-10 minutes for lysis to take place and then 3 uL-5 μL of room temperature stop solution was added and wells were shaken/mixed again. After 2-5 minutes, the cell lysate plate was transferred to ice for RT-qPCR reaction setup. The lysates could also be frozen at −80° C. for later use.
In some cases, a direct lysis buffer was used. An appropriate volume of 3×lysis buffer (10 mM Tris, 150 mM NaCl, 1.5%-2.5% Igepal and 0.1-1 U/uL RNAsin, pH 7.4) was directly added to either K562 or A673 cells in media and mixed by pipetting 3 times. The plates were then incubated at room temperature with shaking/rocking for 20-50 minutes to allow for lysis to take place. After this time, the cell lysate plate was transferred to ice to set up for the RT-qPCR reactions. The lysates could also be frozen at −80° C. for later use. […]

[1] = tested on: HiBiT-tagged MYB protein in K562 cells; assay: HiBiT protein abundance assay, MYB; type: cell-based, human; conditions: HiBiT-modified K562 cells, 24 hours, luminescence
Experimental: (§1) Compounds described herein were used to screen for effects on quantitative protein abundance using a HiBit assay system (Promega). Quantitative protein abundance was determined by measuring the protein levels of HiBit-tagged protein targets expressed in cell culture via luminescence using the Nano-Glo HiBiT Lytic Detection System, which uses a split complementation assay format to reconstitute NanoBiT enzyme to generate a luminescent signal. A protein abundance assay was developed such that endogenous protein targets could be modified with the HiBiT peptide tag and their abundance could be assessed after compound treatment. Briefly, K562 cell lines containing a HiBiT-modification were treated with various compounds described herein (e.g., compounds of Formulas (I), (II), or (III)). After treatment for 24 hours, the protein abundance of a specific target was determined by measuring luminescence.
(§2) • Promega Nano-Glo HiBiT Lytic Detection System (cat #N3030) • Corning 384-well TC-treated microplates (cat #3570) • Synthego Engineered Cells Knock-In Clones
(§3) Cells were maintained in IMDM with 10% FBS. Before the assay, cells were diluted with […] growth media (IMDM+1% FBS media) and were seeded in a 384-well plate at a density of 10000 cells/well (for each cell line listed in Table 5). Each compound was prepared as a 10-point 3-fold serial dilution in DMSO with the top dose at a final concentration of 10 μM in the well. Unmodified K562 cells were added at the previously specified density with DMSO to serve as an assay baseline and positive control (PC) and DMSO only with the respective modified cell lines was added to the negative control (NC) columns. Final DMSO concentration was kept at or below 0.25%. Treated cell plates were placed in an incubator at 37° C. with 5% CO2 for 24 hours. After 24 hours, 25 μL of Complete HiBit Lytic reagent was added to each well at room temperature (e.g. one plate requiring 10 mL Lytic Buffer, 100 μL LgBiT Protein, 200 μL Lytic Substrate), shaken for 5 minutes at 600 RPM, then left to sit for 10 minutes for signal to stabilize before reading on a Spark Cyto plate reader (Tecan) with a 500 ms measurement time.
(§4) To determine compound effects on protein abundance of each target in Table 5, the percent response for each respective cell line was calculated at each compound concentration as follows:
(§5) For the normalized response at each concentration, a four-parameter logistical regression was fit to the data and the response was interpolated at the 50% value to determine a concentration for protein abundance at 50% (IC50) the untreated control.

[2] = tested on: HiBiT-tagged Target C protein in K562 cells; assay: HiBiT protein abundance assay, Target C; type: cell-based, human; conditions: HiBiT-modified K562 cells, 24 hours, luminescence
Experimental: as §1, §2, §3, §4, §5

[3] = tested on: HiBiT-tagged HTT protein in K562 cells; assay: HiBiT protein abundance assay, HTT; type: cell-based, human; conditions: HiBiT-modified K562 cells, 24 hours, luminescence
Experimental: as §1, §2, §3, §4, §5

Row | IC50 (MYB mRNA) | IC50 [1] | IC50 [2] | IC50 [3] | SMILES | AC50 (MYB mRNA)
1 | 0.1 to 1 µM | 0.1 to 1 µM | 0.1 to 1 µM | < 0.1 µM | Cc1cc(-c2cc3cnn(C4CCNCC4)c(=O)c3s2)cc2cn(C)nc12 [Compound 802, 2-(2,7-dimethyl-2H-indazol-5-yl)-6-(piperidin-4-yl)thieno[2,3-d]pyridazin-7(6H)-one] | 0.1 to 1 µM
2 | 1 to 10 µM | 1 to 10 µM | > 10 µM | 1 to 10 µM | Cc1cn2nc(-c3cc4ncn(C5CCN(C)CC5)c(=O)c4s3)cc(C)c2n1 [Compound 239, 6-(2,8-dimethylimidazo[1,2-b]pyridazin-6-yl)-3-(1-methylpiperidin-4-yl)thieno[3,2-d]pyrimidin-4(3H)-one] | 0.1 to 1 µM
3 | 0.1 to 1 µM | 0.1 to 1 µM | 0.1 to 1 µM | 0.1 to 1 µM | Cc1cn2nc(-c3nc4cnn(C5CCNCC5)c(=O)c4s3)cc(C)c2n1 [Compound 810] | 0.1 to 1 µM
4 | 0.1 to 1 µM | 0.1 to 1 µM | 0.1 to 1 µM | 0.1 to 1 µM | Cc1cn2cc(-c3cc4ncn(C5CCNC5)c(=O)c4s3)cc(F)c2n1 (stereo not shown) [Compound 270, 6-{8-fluoro-2-methylimidazo[1,2-a]pyridin-6-yl}-3-(pyrrolidin-3-yl)thieno[3,2-d]pyrimidin-4-one] | 0.1 to 1 µM
5 | 0.1 to 1 µM | 0.1 to 1 µM | 0.1 to 1 µM | 0.1 to 1 µM | Cc1cn2cc(-c3cc4ncn([C@H]5CCN[C@H](C)C5)c(=O)c4s3)cc(F)c2n1 (relative stereo) [Compound 277, 6-{8-fluoro-2-methylimidazo[1,2-a]pyridin-6-yl}-3-[(trans)-2-methylpiperidin-4-yl]thieno[3,2-d]pyrimidin-4-one] | 0.1 to 1 µM

The next lines start with the compound.

Row | SMILES | IC50 (MYB mRNA) | IC50 [1] | IC50 [2] | IC50 [3] | AC50 (MYB mRNA)
6 | Cc1cc(-c2nc3ncn(C4CCN(C)CC4)c(=O)c3s2)cc2cn(C)nc12 [Compound 234, 2-(2,7-dimethyl-2H-indazol-5-yl)-6-(1-methylpiperidin-4-yl)thiazolo[4,5-d]pyrimidin-7(6H)-one] | 0.1 to 1 µM | < 0.1 µM | 0.1 to 1 µM | 0.1 to 1 µM | < 0.1 µM
7 | Cc1cn2cc(-c3cc4ncn(C5CCNCC5)c(=O)c4s3)cc(F)c2n1 [Compound 235, 6-(8-fluoro-2-methylimidazo[1,2-a]pyridin-6-yl)-3-(piperidin-4-yl)thieno[3,2-d]pyrimidin-4(3H)-one] | 0.1 to 1 µM | 0.1 to 1 µM | 0.1 to 1 µM | 0.1 to 1 µM | 0.1 to 1 µM
8 | Cc1cc(-c2cc3ncn(C4CCN(C)CC4)c(=O)c3s2)cc2cn(C)nc12 [Compound 237, 6-(2,7-dimethyl-2H-indazol-5-yl)-3-(1-methylpiperidin-4-yl)thieno[3,2-d]pyrimidin-4(3H)-one] | 0.1 to 1 µM | < 0.1 µM | 0.1 to 1 µM | 0.1 to 1 µM | < 0.1 µM
9 | Cc1cn2cc(-c3nn4c(=O)cc(N5CCNCC5)nc4s3)cc(F)c2n1 [Compound 214, 2-(8-fluoro-2-methylimidazo[1,2-a]pyridin-6-yl)-7-(piperazin-1-yl)-5H-[1,3,4]thiadiazolo[3,2-a]pyrimidin-5-one] | 1 to 10 µM | > 10 µM | > 10 µM | > 10 µM | 1 to 10 µM
10 | Cc1cn2cc(-n3cnc4nc(N5CCNCC5)sc4c3=O)cc(F)c2n1 [Compound 226, 6-(8-fluoro-2-methylimidazo[1,2-a]pyridin-6-yl)-2-(piperazin-1-yl)thiazolo[4,5-d]pyrimidin-7(6H)-one] | 0.1 to 1 µM | 0.1 to 1 µM | 0.1 to 1 µM | 0.1 to 1 µM | 0.1 to 1 µM
11 | Cc1cn2cc(-c3cn4c(=O)cc(N5CCNCC5)nc4s3)cc(F)c2n1 [Compound 213, 2-(8-fluoro-2-methylimidazo[1,2-a]pyridin-6-yl)-7-(piperazin-1-yl)-5H-thiazolo[3,2-a]pyrimidin-5-one] | > 10 µM | > 10 µM | > 10 µM | > 10 µM | > 10 µM
12 | Cc1cn2nc(-c3cc(=O)n4cc(N5CCNC6(CC6)C5)sc4n3)cc(C)c2n1 [Compound 211, 7-(2,8-dimethylimidazo[1,2-b]pyridazin-6-yl)-2-(4,7-diazaspiro[2.5]octan-7-yl)-5H-thiazolo[3,2-a]pyrimidin-5-one] | 1 to 10 µM | 1 to 10 µM | 1 to 10 µM | 1 to 10 µM | 0.1 to 1 µM
13 | Cc1cn2cc(-c3nn4c(=O)cc(N5CCNC6(CC6)C5)nc4s3)cc(F)c2n1 [Compound 216, 2-(8-fluoro-2-methylimidazo[1,2-a]pyridin-6-yl)-7-(4,7-diazaspiro[2.5]octan-7-yl)-5H-[1,3,4]thiadiazolo[3,2-a]pyrimidin-5-one] | 1 to 10 µM | 1 to 10 µM | 1 to 10 µM | 1 to 10 µM | 1 to 10 µM
14 | Cc1cn2cc(-c3cc(=O)n4nc(N5CCNC6(CC6)C5)sc4n3)cc(F)c2n1 [Compound 209, 7-(8-fluoro-2-methylimidazo[1,2-a]pyridin-6-yl)-2-(4,7-diazaspiro[2.5]octan-7-yl)-5H-[1,3,4]thiadiazolo[3,2-a]pyrimidin-5-one] | 1 to 10 µM | 1 to 10 µM | 1 to 10 µM | 1 to 10 µM | 1 to 10 µM
